Results taken from patent US11304897B2, “Pharmaceutical formulation containing umeclidinium bromide and vilanterol trifenatate” (ANOVENT PHARMACEUTICAL (U.S.), LLC, priority 2020, dated 2022).
Converted amounts (≈) assume the structure as drawn.

Assay: Solubility in different cosolvents
Format: physicochemical
From the text: Solubility in Different Cosolvents: 5% tween-80: Dissolve 5 g tween-80 in 100 g purified water. 5% Sulfobutylether β-cyclodextrin: Dissolve 5 g Sulfobutylether β-cyclodextrin in 100 g purified water. 20% Sulfobutylether β-cyclodextrin: Dissolve 20 g Sulfobutylether β-cyclodextrin in 100 g purified water.

[1] = 0.2 mg/ml tween-80, aqueous with cosolvent or surfactant or cyclodextrin
[2] = 5% sulfobutylether β-cyclodextrin in purified water, aqueous with cosolvent or surfactant or cyclodextrin
[3] = 5% tween-80 in purified water, aqueous with cosolvent or surfactant or cyclodextrin, 5% tween -80
[4] = 20% sulfobutylether β-cyclodextrin in purified water, aqueous with cosolvent or surfactant or cyclodextrin

solubility [1] | solubility [2] | solubility [3] | solubility [4] | solubility (in words) (purified water) | solubility (purified water, water) | Compound
582 µg/mL | 3560 µg/mL | 3540 µg/mL | 3450 µg/mL | almost insoluble | 618 µg/mL | OC(c1ccccc1)(c1ccccc1)C12CC[N+](CCOCc3ccccc3)(CC1)CC2.[Br-] [UB, 1-[2-(benzyloxy)ethyl]-4-(hydroxydiphenylmethyl)-1-azoniabicyclo[2.2.2]octane bromide]
62.6 µg/mL (≈ 129 µM) | 370 µg/mL (≈ 760 µM) | 1370 µg/mL (≈ 2820 µM) | 1400 µg/mL (≈ 2880 µM) | almost insoluble | 53.7 µg/mL (≈ 110 µM) | OCc1cc([C@@H](O)CNCCCCCCOCCOCc2c(Cl)cccc2Cl)ccc1O [VT, triphenylacetic acid-4-{(1R)-2-[(6-{2-[(2,6-dicholorobenzyl)oxy]ethoxy}hexyl)amino]-1-hydroxyethyl}-2-(hydroxymethyl)phenol (1:1)]
